Several values for one entry are separate records, joined by “and”; a condition that tells them apart may be missing. Equal entries are not always repeated.
Assays:
NMDA receptor [1] = assay: NMDA-evoked currents in primary culture of cortical neurons, whole-cell patch-clamp; type: cell-based, rat; conditions: for IC50: NMDA 100 µM + glycine 10 µM, read-out: IC50 of reduction of NMDA-evoked current; for maximal reduction of NMDA current (efficacy): from dose-response curve
Procedure: (§1) Primary cultures of cortical (CX) and cerebellar (CB) neurons were prepared from newborn (CX) or seven days old (CB) Sprague-Dawley rats Briefly, cells from cortex and cerebellum were dispersed with trypsin (0.24 mg/ml; Sigma Aldrich, Milan, Italy) and plated at a density of 0.8 × 10^6 cells/ml on 35 mm Falcon dishes coated with poly-L-lysine (10 µg/ml, Sigma Aldrich). Cells were plated in basal Eagle's Medium (BME; Celbio, Milan, Italy), supplemented with 10% fetal bovine serum (Celbio), 2 mM glutamine, 25 mM KCl and 100 µg/ml gentamycin (Sigma Aldrich) and maintained at 37°C in 5% CO2. After 24 h in vitro, the medium was replaced with 1:1 mixture of BME and Neurobasal medium (Celbio, Milan) containing 2% B27 supplement, 1% antibiotic, and 0.25% glutamine (Invitrogen). At […] in vitro (DIV5), cytosine arabinofuranoside (Ara-C) was added at final concentration of 1 µM. Thereafter, half of the medium was replaced twice a week with Neurobasal medium containing 2% B27 supplement, 1% antibiotic, and 0.25% glutamine.
(§2) Recordings were performed in cortical and cerebellar neurons after 7–9 days in culture or in spinal cord slices from postnatal rats. All recordings were performed at room temperature, under voltage-clamp in the whole-cell configuration of the patch-clamp technique ([19]). […] Currents were amplified with an Axopatch 1D amplifier (Axon Instruments, Foster City. CA), filtered at 5 kHz, digitized at 10 kHz.
(§3) The chamber used for recording from cultured neurons was continuously perfused at 2 ml/min with an extracellular medium composed of (mM): 145 NaCl, 5 KCl, 1 CaCl2, 5 Hepes, 5 Glucose, and 20 Sucrose, pH 7.4 with NaOH. Intracellular solution contains (mM): 140 KCl, 3 MgCl2, 5 EGTA, 5 Hepes, and 2 ATP-Na, pH 7.3 with KOH.
(§4) All drugs were applied directly by gravity through a Y-tube perfusion system ([21]) in the experiments performed in culture while in slice experiments CR4056 and the receptor antagonists were bath perfused.
When CR4056 (10 µM) was delivered inside the cell through the patch pipette the response to NMDA application was recorded at time 0 (just after breaking inside the cell) and after 1.5, 3, 4.5, 6 min. The NMDA-evoked current was recorded at these time intervals and the amplitude of the current was measured.
The effect of CR 4056 in primary neuronal cultures was calculated as % variation of the NMDA-evoked current after application of the drug. A negative variation means a reduction of the control current. Off-line data analysis, curve fitting, and figure preparation were performed with Clampfit 9 or 10 (Molecular Devices, Sunnyvale, CA, United States), Origin 4.1 (Microcal, Northampton, MA, United States), and Microsoft Office (Microsoft). SigmaPlot 11 (SYSTAT, Palo Alto, CA, United States) and GraphPad Prism 9.3 (GraphPad Software, San Diego, CA, United States) were used for statistical analysis.
NMDA-evoked currents were recorded in primary culture of cortical neurons using the patch-clamp technique in the whole cell configuration. Fast application of NMDA (100 µM) and Glycine (10 µM) elicited an inward current that was decreased by CR4056 (Figure 1A); the effect was reversible and dose-dependent (Figure 1B). […] (Figure 1B).

[2] = biological target: GluN1-GluN2A containing receptors (Homo sapiens, UniProt Q05586+Q12879); assay: NMDA-evoked currents in JM4C fibroblasts expressing GluN1-GluN2A; type: cell-based; conditions: for IC50: 0.1–100 µM, read-out: IC50 of reduction of NMDA-evoked current, GluN1-GluN2A; for Emax: read-out: efficacy (Eff, maximal effect) on NMDA-evoked current, GluN1-GluN2A
GluN1-GluN2A containing receptors, sequence (Q12879 23-1464, other chains not shown): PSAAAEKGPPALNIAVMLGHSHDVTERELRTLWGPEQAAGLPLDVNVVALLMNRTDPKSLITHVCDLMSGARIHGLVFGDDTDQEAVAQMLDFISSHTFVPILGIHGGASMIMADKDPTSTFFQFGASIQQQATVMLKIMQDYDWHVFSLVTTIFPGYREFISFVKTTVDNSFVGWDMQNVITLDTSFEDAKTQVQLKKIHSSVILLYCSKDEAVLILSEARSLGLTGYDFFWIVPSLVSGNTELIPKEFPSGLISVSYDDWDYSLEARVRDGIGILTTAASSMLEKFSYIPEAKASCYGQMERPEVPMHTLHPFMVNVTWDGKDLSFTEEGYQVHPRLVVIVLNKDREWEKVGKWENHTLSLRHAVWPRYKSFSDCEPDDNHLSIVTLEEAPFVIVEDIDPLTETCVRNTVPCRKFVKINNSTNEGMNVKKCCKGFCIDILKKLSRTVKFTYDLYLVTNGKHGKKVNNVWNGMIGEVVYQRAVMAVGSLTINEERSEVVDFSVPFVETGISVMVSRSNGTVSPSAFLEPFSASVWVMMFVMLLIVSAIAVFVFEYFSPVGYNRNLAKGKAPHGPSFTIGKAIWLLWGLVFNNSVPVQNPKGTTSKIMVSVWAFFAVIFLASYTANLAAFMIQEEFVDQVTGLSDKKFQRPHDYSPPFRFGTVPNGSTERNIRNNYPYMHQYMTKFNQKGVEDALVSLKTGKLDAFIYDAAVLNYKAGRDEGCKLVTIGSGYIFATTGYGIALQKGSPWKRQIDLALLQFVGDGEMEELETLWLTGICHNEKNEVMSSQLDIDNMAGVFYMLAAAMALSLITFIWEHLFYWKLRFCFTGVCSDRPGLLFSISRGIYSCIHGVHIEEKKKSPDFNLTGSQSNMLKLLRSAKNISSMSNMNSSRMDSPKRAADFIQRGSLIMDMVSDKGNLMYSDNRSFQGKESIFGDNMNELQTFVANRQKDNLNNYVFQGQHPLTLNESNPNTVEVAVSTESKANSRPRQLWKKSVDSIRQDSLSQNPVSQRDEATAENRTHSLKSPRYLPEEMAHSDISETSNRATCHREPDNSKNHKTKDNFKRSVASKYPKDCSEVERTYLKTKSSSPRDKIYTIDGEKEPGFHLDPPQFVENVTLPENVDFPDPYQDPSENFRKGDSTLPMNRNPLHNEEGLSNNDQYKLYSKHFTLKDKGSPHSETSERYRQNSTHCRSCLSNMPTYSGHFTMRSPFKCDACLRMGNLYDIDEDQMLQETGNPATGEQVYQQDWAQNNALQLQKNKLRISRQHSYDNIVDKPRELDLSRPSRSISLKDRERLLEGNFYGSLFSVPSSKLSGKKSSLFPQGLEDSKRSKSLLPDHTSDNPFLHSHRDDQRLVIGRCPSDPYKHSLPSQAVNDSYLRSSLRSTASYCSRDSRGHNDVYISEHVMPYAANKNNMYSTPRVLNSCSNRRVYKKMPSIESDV
Procedure: (§5) Mouse connective tissue fibroblasts JM4C cells stably transfected with NR1A/NR2A or NR1A/NR2B human NMDA inducible receptors were kindly donated by Dr. Paul Whiting, Merk Sharp / Dohme (UK). They were grown in Dulbecco's Modified Basal Eagle's medium (DMEM) with Na+ pyruvate, 4,500 mg glucose and glutamine. For growing, DMEM was added with geneticin 1 mg/ml (Sigma) and foetal bovine serum 10% (Celbio). One day before experiment, fibroblasts confluent dishes were split with trypsin-EDTA 0.05% (Euroclone) and plated at the density of 0.5 × 10^6 cells/ml in 2 ml dishes containing an inducing DMEM with ketamine (final concentration 0.015%, Gellini International, Italy) and 25 nM dexamethasone (Sigma Aldrich) to induce NMDA receptors expression.
as §2, §3, §4
(§6) Increasing concentrations of CR4056 (0.1–100 µM) were applied to NMDA-evoked currents in fibroblasts expressing GluN1- GluN2A or GluN1- GluN2B subunits (Figure 3A).

GluN1-GluN2B receptors = GluN1-GluN2B receptors (Homo sapiens, UniProt Q05586+Q13224); assay: NMDA-evoked currents in JM4C fibroblasts expressing GluN1-GluN2B; type: cell-based; conditions: for IC50: 0.1–100 µM, read-out: IC50 of reduction of NMDA-evoked current, GluN1-GluN2B; for Emax: read-out: efficacy (Eff, maximal effect) on NMDA-evoked current, GluN1-GluN2B
GluN1-GluN2B receptors, sequence (Q13224 27-1484, other chains not shown): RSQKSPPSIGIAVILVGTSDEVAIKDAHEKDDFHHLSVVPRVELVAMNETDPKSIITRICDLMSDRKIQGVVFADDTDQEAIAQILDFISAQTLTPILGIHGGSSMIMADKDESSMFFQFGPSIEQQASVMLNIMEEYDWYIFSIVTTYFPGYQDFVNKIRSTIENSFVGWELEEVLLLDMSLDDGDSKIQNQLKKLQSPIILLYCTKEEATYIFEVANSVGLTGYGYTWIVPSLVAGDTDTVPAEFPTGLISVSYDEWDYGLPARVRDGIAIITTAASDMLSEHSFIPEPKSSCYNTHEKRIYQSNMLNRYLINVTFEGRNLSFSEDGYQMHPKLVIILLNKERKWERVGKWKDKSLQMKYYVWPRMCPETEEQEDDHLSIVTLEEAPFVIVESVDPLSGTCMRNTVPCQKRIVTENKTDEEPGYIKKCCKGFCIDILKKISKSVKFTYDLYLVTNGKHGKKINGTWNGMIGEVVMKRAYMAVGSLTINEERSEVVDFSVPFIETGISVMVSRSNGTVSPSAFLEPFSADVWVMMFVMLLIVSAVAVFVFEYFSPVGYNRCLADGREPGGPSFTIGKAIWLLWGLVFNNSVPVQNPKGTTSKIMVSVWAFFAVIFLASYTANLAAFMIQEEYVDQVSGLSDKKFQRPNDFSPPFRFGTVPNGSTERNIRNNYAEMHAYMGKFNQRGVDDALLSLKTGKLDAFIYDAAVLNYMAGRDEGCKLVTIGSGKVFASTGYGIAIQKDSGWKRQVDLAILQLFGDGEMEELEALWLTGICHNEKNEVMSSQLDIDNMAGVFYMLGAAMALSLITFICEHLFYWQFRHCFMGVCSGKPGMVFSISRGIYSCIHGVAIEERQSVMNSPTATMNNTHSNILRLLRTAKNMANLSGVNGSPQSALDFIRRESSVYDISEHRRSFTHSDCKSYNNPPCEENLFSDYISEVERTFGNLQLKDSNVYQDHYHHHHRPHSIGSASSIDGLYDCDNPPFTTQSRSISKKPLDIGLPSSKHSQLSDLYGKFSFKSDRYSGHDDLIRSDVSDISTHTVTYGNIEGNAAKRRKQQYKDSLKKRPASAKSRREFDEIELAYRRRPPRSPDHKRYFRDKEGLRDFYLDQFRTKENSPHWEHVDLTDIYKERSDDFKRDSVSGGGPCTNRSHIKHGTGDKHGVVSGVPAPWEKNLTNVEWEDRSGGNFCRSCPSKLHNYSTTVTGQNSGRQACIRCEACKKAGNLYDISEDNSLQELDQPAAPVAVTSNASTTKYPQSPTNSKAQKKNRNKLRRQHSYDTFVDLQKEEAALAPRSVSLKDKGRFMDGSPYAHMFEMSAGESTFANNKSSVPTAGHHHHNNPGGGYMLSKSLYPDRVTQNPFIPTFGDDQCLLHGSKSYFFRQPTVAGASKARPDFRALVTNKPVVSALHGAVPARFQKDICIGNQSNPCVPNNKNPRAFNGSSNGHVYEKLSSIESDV
Procedure: as §5, §2, §3, §4, §6

PKCε translocation = tested on: PKCε translocation; set-up: method as in PMID 31454418; conditions: activated sensory neurons, cultured DRG; cited from earlier work
NMDA receptor [3] = assay: NMDA-evoked currents in primary culture of cerebellar neurons, whole-cell patch-clamp; type: cell-based, rat; conditions: CR4056 10 µM, glycine 1-500 µM, one-way ANOVA
Procedure: as §1, with “Thereafter, half of the medium was replaced twice a week with Neurobasal medium containing 2% B27 supplement, 1% antibiotic, and 0.25% glutamine.” left out
The effect of CR 4056 in primary neuronal cultures was calculated as % variation of the NMDA-evoked current after application of the drug. […]
Glycine is an important co-agonist of the NMDA receptor. To test the dependence of CR4056 modulation on glycine concentration we measured the reduction of NMDA current by CR4056 (10 µM) in the presence of 1, 5, 10, 50, 100, and 500 µM glycine.

[4] = tested on: NMDA-mediated postsynaptic excitatory currents (EPSCs); assay: NMDA EPSCs evoked by dorsal root stimulation in lamina II neurons of spinal cord slices; type: cell-based, rat
Text: (§7) Sprague–Dawley rats (male and female at postnatal days P15-P23) were anaesthetized with isoflurane and decapitated. The spinal cord and vertebrae were rapidly removed and placed in ice-cold dissecting Krebs' solution (composition in mM: 90 NaCl, 50 sucrose, 2.5 KCl, 25 NaHCO3, 1 NaH2PO4·H2O, 25 glucose, 6 MgCl2, 1.5 CaCl2, 1 kynurenic acid), bubbled with carboxygen (95% O2, 5% CO2). The lumbar part of the spinal cord was isolated, embedded in low melting point agarose (3% w/v, Thermo Fisher Scientific, Waltham, United States), and transverse slices (500 µm thick) were obtained using a vibrating microtome (WPI, Sarasota, United States). Slices were incubated in oxygenated incubation Krebs' solution (composition in mM: 125 NaCl, 2.5 KCl, 25 NaHCO3, 1 NaH2PO4·H2O, 25 glucose, 6 MgCl2, 1.5 CaCl2) at 32°C for 30 min and then used for recording.
Neurons in spinal cord slices were visualized using an Axioskop microscope (Zeiss, Oberkochen, Germany), fitted with Nomarski optics and connected to a CCD camera (Dage-MTI, Michigan City, United States). Patch-clamp recordings were performed by using thick-walled borosilicate pipettes (3–5 MOhm resistance). Data were recorded and acquired using a MultiClamp 700A amplifier and the pClamp 10 software (Molecular Devices, Sunnyvale, United States). Sampling rate was 10 kHz, and data were filtered at 2–5 kHz. The dorsal root attached to each slice was stimulated using a suction electrode. Stimulus duration was 0.1 ms, stimulus intensity was 500 µA, able to activate both A and C primary afferent fibers ([20]). Extracellular field potentials were recorded by positioning a glass pipette (3–5 µm diameter, filled with Krebs' extracellular solution) on lamina II in spinal cord slices. […]
We next investigated the modulatory effect of CR4056 on NMDA-mediated postsynaptic excitatory currents (EPSCs) recorded from lamina II neurons in rat spinal cord slices. […] To isolate NMDA EPSCs (recorded in voltage clamp at +40 mV), AMPA, GABAA and glycine receptors were blocked by NBQX (10 µM), bicuculline (10 µM), and strychnine (0.5 µM), respectively. […]

[5] = tested on: field potentials from dorsal horn laminae I-II (mainly mediated by AMPARs); assay: Extracellular field potentials evoked by dorsal root stimulation in spinal cord slices; type: cell-based, rat; conditions: 6 slices; p > 0.05
Text: as §7, with “Slices were incubated in oxygenated incubation Krebs' solution (composition in mM: 125 NaCl, 2.5 KCl, 25 NaHCO3, 1 NaH2PO4·H2O, 25 glucose, 6 MgCl2, 1.5 CaCl2) at 32°C for 30 min and then used for recording.” left out
Neurons in spinal cord slices were visualized using an Axioskop microscope (Zeiss, Oberkochen, Germany), fitted with Nomarski optics and connected to a CCD camera (Dage-MTI, Michigan City, United States). […] Data were recorded and acquired using a MultiClamp 700A amplifier and the pClamp 10 software (Molecular Devices, Sunnyvale, United States). […] Extracellular field potentials were recorded by positioning a glass pipette (3–5 µm diameter, filled with Krebs' extracellular solution) on lamina II in spinal cord slices. […]
To determine whether the effect of CR4056 on NMDA EPSCs was due to a decrease of glutamate release from primary afferents or to a modulation of NMDARs, we recorded extracellular field potentials evoked by dorsal root stimulation (Figure 4E). […]

[6] = tested on: lamina II neuron excitability; assay: Current-clamp recording of summated EPSPs and action potentials on repetitive dorsal root stimulation; type: cell-based, rat
Text: as §7
Neurons in spinal cord slices were visualized using an Axioskop microscope (Zeiss, Oberkochen, Germany), fitted with Nomarski optics and connected to a CCD camera (Dage-MTI, Michigan City, United States). Patch-clamp recordings were performed by using thick-walled borosilicate pipettes (3–5 MOhm resistance). Data were recorded and acquired using a MultiClamp 700A amplifier and the pClamp 10 software (Molecular Devices, Sunnyvale, United States). Sampling rate was 10 kHz, and data were filtered at 2–5 kHz. The dorsal root attached to each slice was stimulated using a suction electrode. Stimulus duration was 0.1 ms, stimulus intensity was 500 µA, able to activate both A and C primary afferent fibers ([20]). Extracellular field potentials were recorded by positioning a glass pipette (3–5 µm diameter, filled with Krebs' extracellular solution) on lamina II in spinal cord slices. Extracellular synaptic potentials were evoked by dorsal root stimulation, as described above, and amplified by using a Multiclamp 700A amplifier (Molecular Devices, Sunnyvale, United States).
For the experiments on neurons in slices the following Krebs' extracellular solution was used (composition in mM): 125 NaCl, 2.5 KCl, 25 NaHCO3, 1 NaH2PO4·H2O, 25 glucose, 1 MgCl2, 2 CaCl2. A cesium-based internal solution was used during the voltage-clamp experiments (composition in mM: 120 caesium methanesulfonate, 10 sodium methanesulfonate, 10 EGTA, 1 CaCl2, 10 Hepes, 5 lidocaine N-ethyl bromide quaternary salt-Cl, 5 MgATP, pH adjusted to 7.2 with CsOH, osmolarity 290 mOsmol L^−1), while a potassium-based solution was utilized for the experiments in current-clamp (composition in mM: 120 potassium methanesulfonate, 10 NaCl, 10 EGTA, 1 CaCl2, 10 Hepes, 5 MgATP, pH adjusted to 7.2 with KOH, osmolarity 300 mOsmol L^−1).
Finally, we tested whether CR4056 was able to depress lamina II neuron excitability in response to repetitive stimulation of the dorsal root. […]

[7] = CR4056 10 µM, 4 pulses 5–10 Hz, 500 µA

## Cl.c1ccc2oc(C3=NCCN3)cc2c1 [2-BFI, 2-(2-Benzofuranyl)-2-imidazoline hydrochloride, reference compound]
NMDA receptor [1]; cortical neurons
  IC50: 8 µM and 13 µM
  maximal reduction of NMDA current (efficacy): 76 ± 2% and 48 ± 5%
[2]
  IC50: 23 ± 12 µM
  Emax: -39 ± 6%
GluN1-GluN2B receptors
  IC50: 11 ± 6 µM
  Emax: -73 ± 7%
PKCε translocation
  effect on PKCε translocation: ineffective

## c1ccc(-c2ncc3cc(-n4ccnc4)ccc3n2)cc1 [CR4056, 2-phenyl-6-(1H-imidazol-1yl)quinazoline]
NMDA receptor [1]; 10 µM intracellular, p > 0.05, t-test
  change of amplitude of NMDA currents, compound dialyzed inside the cell via patch pipette: did not change significantly
NMDA receptor [1]; CR4056 10 µM + idazoxan 10 µM
  CR4056 effect on NMDA current when co-applied with idazoxan: does not change CR4056 effect
NMDA receptor [1]; CR4056 10 µM, NMDA 10 to 100 µM
  reduction of current evoked by increasing NMDA concentration (type of antagonism): reduced to the same extent
NMDA receptor [1]; PTX 200 ng/ml for 24 h
  reduction of NMDA currents in control vs after pertussis toxin: no statistically significant differences
NMDA receptor [1]; cortical neurons, CR4056 10 µM, glycine 1-500 µM, one-way ANOVA
  effect on NMDA current at high glycine concentrations: significatively reduced
NMDA receptor [1]; cortical neurons
  IC50: 5.3 ± 0.1 µM
  maximal reduction of NMDA current (efficacy): 84.4 ± 6%
NMDA receptor [1]; holding potential +40 mV, CR4056 10 µM
  reduction of NMDA-evoked current at +40 mV: −31 ± 1%
NMDA receptor [1]; holding potential −40 mV, CR4056 10 µM
  reduction of NMDA-evoked current at −40 mV: −33 ± 4%
NMDA receptor [3]
  effect on NMDA current at high glycine concentrations: significatively reduced
[2]
  IC50: 21 ± 12 µM
  Emax: -47 ± 3%
GluN1-GluN2B receptors
  IC50: 11 ± 2 µM
  Emax: -86 ± 6%
[4]; CR4056 10 µM, +40 mV, NBQX, bicuculline, strychnine present, 7 neurons
  average reduction in NMDA EPSC amplitude: 26.3 ± 4.2%
[4]; after washing of CR4056, N 7
  EPSC amplitude in WASH, mean: 514.986 pA
[4]; during CR4056, N 7, control mean 597.629
  EPSC amplitude in CR, mean: 475.443 pA
[5]
  effect on field potential area: did not affect
[6]; [7]
  change of area of the summated EPSPs: −29.7 ± 5.4%
  change of mean number of action potentials generated at each train: −50.9 ± 12.6%
[6]; during CR4056, N 7, control mean 11858.457
  EPSP area in CR, mean: 8924.714 mV*ms
[6]; during CR4056, N 7, control median 0.310
  N action potentials/train in CR, median: 0.150
PKCε translocation
  effect on PKCε translocation: reduces PKCε translocation

## c1ccc2c(c1)OCC(C1=NCCN1)O2 (stereo not shown) [Idazoxan, reference compound]
NMDA receptor [1]; 10 µM
  effect on NMDA-elicited current applied alone: did not affect

— paper PMC9632859, “Modulation of NMDA receptor activity by CR4056, an imidazoline-2 receptor ligand with analgesic properties” (Frontiers in Pain Research, 2022)
